How the values were obtained:
Assay type in all cases: cell-based, human
[1] = test system: hPSC-derived atrial CMs; experiment: Seahorse FAO Cell Mito stress test (OCR), atrial CMs; conditions: ETO 40 μM
[2] = test system: hPSC-derived compact cardiomyocytes; experiment: Seahorse XF FAO Cell Mito stress test (OCR), compact cardiomyocytes; conditions: ETO 40 μM, mature cells
[3] = test system: mature and immature CMs; experiment: In vitro pathological stimuli model: CASP9 expression and Annexin V apoptosis assay
Description: After the culture in the pathological condition for 6 days, the EBs were dissociated as described above. To detect the apoptosis following the pathological stimuli, TACS® Annexin V assay (TREVIGEN) was performed by flowcytometry. Cells were washed with PBS and stained with Annexin V-FITC for 15 mins at room temperature. Add Binding Buffer to samples and process by flowcytometry. Stained cells were analyzed using the LSR II Flow cytometer (BD). Data were analyzed using FlowJo™ software (Tree Star).
(§1) To induce a pathological response in the mature CMs, we cultured them in the presence of isoproterenol (100 μM), a small molecule adrenergic agonist in a hypoxic (5% O2) environment, in low glucose containing medium with Palmitate (200 μM) for 6 days (FIG. 8B). Immature control cells were treated under the same conditions. […] (FIG. 8C). To assess the glycolytic flux in these cells, we measured the extracellular acidification rate (ECAR) as an index of glycolytic activity using the Seahorse™ XF assay (Mookerjee and Brand. J Vis Exp. (2015) e53464).

[4] = test system: mature compact CMs; experiment: In vitro pathological stimuli model: ECAR by Seahorse XF glycolysis assay
Description: For the Seahorse™ XF FAO assay, a few EBs were plated onto an XFe24 cell culture microplate coated by Matrigel™ 48 hours prior to the assay. 24 hours prior to the assay, replace the culture medium with substrate-limited medium containing 0.5 mM glucose (Sigma), 1.0 mM Glutamine (Life technology), 0.5 mM Carnitine (Sigma), and 1% Fetal Bovine Serum (Wisent) in DMEM no glucose medium (ThermoFisher). 45 mins prior to the assay, wash the cells two times with FAO assay medium, add 375 μl/well FAO assay medium to the cells and incubate for 45 mins at 37 C. Load the assay cartridge with Seahorse™ XF Cell Mito Stress Test compounds (2 μM oligomycin, 5 μM FCCP, 0.5 μM rotenone/0.5 μM antimycin A). […] After the measurement of OCR, EBs are dissociated and counted the cell number in each well. […] After the measurement of ECAR, EBs are dissociated and counted the cell number in each well. […]
To induce a pathological response in the mature CMs, we cultured them in the presence of isoproterenol (100 μM), a small molecule adrenergic agonist in a hypoxic (5% O2) environment, in low glucose containing medium with Palmitate (200 μM) for 6 days (FIG. 8B). […] To assess the glycolytic flux in these cells, we measured the extracellular acidification rate (ECAR) as an index of glycolytic activity using the Seahorse™ XF assay (Mookerjee and Brand. J Vis Exp. (2015) e53464).

[5] = test system: mature and immature CMs; experiment: In vitro pathological stimuli model: Nile Red lipid accumulation; conditions: treated populations
Description: To quantify the lipid droplets, Cayman's Lipid Droplets Fluorescence Assay Kit (Cayman) was used. After the EBs were dissociated as described above, cells were fixed by Fixative Solution for 10 mins at room temperature. Cells were washed with Assay Buffer and stained with the Nile Red Staining Solution at room temperature for 15 mins. Cells were washed with Assay Buffer and analyzed with filter sets to detect FITC using the LSR II Flow cytometer (BD PharMingen™). Data were analyzed using FlowJo™ software (Tree Star).
as §1

[6] = test system: mature compact CMs; experiment: In vitro pathological stimuli model (hypoxia+ISO): RT-qPCR
Description: Total RNA from samples was isolated using RNAqueous™-micro Kit including RNase-free DNase treatment (invitrogen). RNA from dissected ventricular and atrial tissue of human fetal hearts was isolated using the TRIzol® method (ThermoFisher) and treated with DNase (Ambion®). Isolated RNA was reverse transcribed into cDNA using oligo (dT) primers and random hexamers and iScript™ Reverse Transcriptase (ThermoFisher). QRT-PCR was performed on an EP Real-Plex MasterCycler® (Eppendorf®) using QuantiFast® SYBR Green PCR kit (QIAGEN). The copy number of each gene relative to the house keeping gene TBP.
as §1

CCOC(=O)[C@@]1(CCCCCCOc2ccc(Cl)cc2)CO1 [ETO, etomoxir]
mitochondrial oxidation, atrial CMs [1]: blocked
mitochondrial oxidation [2]: blocked

CC(C)NCC(O)c1ccc(O)c(O)c1 (stereo not shown) [isoproterenol]
apoptosis (CASP9, Annexin V^+ cells) ([3]; immature population): not in the immature population
apoptosis (CASP9, Annexin V^+ cells) ([3]; mature population): induced apoptosis
glycolytic activity (ECAR) ([4]; isoproterenol 100 μM, 5% O2, 6 days, mature CMs): significantly upregulated
lipid accumulation (Nile red) [5]: increases
expression of glycolysis-related genes GLUT1, GAPDH and LDHA ([6]; isoproterenol 100 μM, 5% O2, low glucose with Palmitate 200 μM, 6 days, mature CMs): upregulation
expression of CD36, GPD1 and PLIN2 ([6]; mature CMs under the pathological stimuli): upregulated
expression of hormone sensitive lipase HSL ([6]; treated mature CMs): downregulated

O=CC[C@@H](O)[C@H](O)[C@H](O)CO [2-DG, 2-deoxy-glucose]
ECAR following injection ([4]; mature CMs exposed to the pathological stimuli, 2-DG 100 mM): rapid decrease

— patent publication US20220228120A1, “Cardiomyocyte Compositions and Use Thereof” (UNIVERSITY HEALTH NETWORK, priority 2019, published 2022)
